# In US20110009421A1, “COMPOUND HAVING 6-MEMBERED AROMATIC RING” (TAKEDA PHARMACEUTICAL COMPANY LIMITED, priority 2008, published 2011):
# Target: T1, human GPR52 (Homo sapiens, UniProt Q9Y2T5)
# T1 construct: expressed in transfected cells; host or cells: CHO (dhfr-) cells
# Assay: Increased intracellular cAMP levels in human GPR52 expression CHO cells (AlphaScreen cAMP assay)
# Assay type: cell-based
# Details: 1 μM test compound, 30 min at 37° C., human GPR52 expression CHO (dhfr−) cells; intracellular cAMP level, 100% = 1 μM 3-(6-(2-(3,4-dimethoxyphenyl)ethoxy)pyridin-2-yl)-N-(2-pyrrolidin-1-ylethyl)benzamide, 0% = DMSO
# Procedure: Increased Intracellular cAMP Levels in Human GPR52 Expression CHO Cells
# 1×10^4 human GPR52 expression CHO (dhfr−) cells were incubated with 1 μM test compound for 30 min at 37° C. in 30 μL assay buffer (HBSS (containing Ca^2+ and Mg^2+), 0.5% BSA, 100 μM IBMX, 100 μM Ro 20-1724, 5 mM HEPES (pH 7.55)) using an OptiPlate-384 (by PerkinElmer). The intracellular cAMP level was then assayed with an EnVision (by PerkinElmer) according to the protocol of the AlphaScreen cAMP Assay Kit (by PerkinElmer). The GPR52 agonist activity was calculated, assuming the intracellular cAMP level to be 100% in the presence of 1 μM of 3-(6-(2-(3,4-dimethoxyphenyl)ethoxy)pyridin-2-yl)-N-(2-pyrrolidin-1-ylethyl)benzamide obtained in Reference Example 39 and assuming the intracellular cAMP level to be 0% when DMSO was added instead of test compound.
# T1 sequence (Q9Y2T5 whole entry): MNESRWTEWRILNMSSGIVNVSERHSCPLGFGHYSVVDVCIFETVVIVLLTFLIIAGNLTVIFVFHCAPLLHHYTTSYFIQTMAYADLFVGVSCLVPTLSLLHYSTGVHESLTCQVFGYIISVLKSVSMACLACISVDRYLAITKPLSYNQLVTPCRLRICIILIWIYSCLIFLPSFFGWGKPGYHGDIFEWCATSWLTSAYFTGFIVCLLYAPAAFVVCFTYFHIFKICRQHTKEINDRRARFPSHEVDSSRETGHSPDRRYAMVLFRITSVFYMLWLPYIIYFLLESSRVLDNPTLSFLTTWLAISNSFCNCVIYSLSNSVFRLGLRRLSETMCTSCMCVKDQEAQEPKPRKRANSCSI
row,GPR52 agonist activity (%),Compound
1,67%,COc1ccc(CCOc2cccc(-c3cccc(C(=O)NCCNc4ccccc4)c3)n2)cc1OC [Working Example 208]
2,68%,"COc1ccc(CCOc2cncc(-c3cccc(C(=O)NCCN4CCCC4)c3)c2)cc1OC [Working Example 44, 3-(5-(2-(3,4-Dimethoxyphenyl)ethoxy)pyridin-3-yl)-N-(2-pyrrolidin-1-ylethyl)benzamide]"
3,84%,"Cc1cccc(CCOc2cccc(-c3cccc(C(=O)NCCO)c3)n2)c1 [Working Example 59, N-(2-Hydroxyethyl)-3-(6-(2-(3-methylphenyl)ethoxy)pyridin-2-yl)benzamide]"
4,106%,"COc1ccc(CCOc2cccc(-c3cccc(C(=O)NCCN4CCCC4)c3)n2)cc1OC [Working Example 39, 3-(6-(2-(3,4-dimethoxyphenyl)ethoxy)pyridin-2-yl)-N-(2-pyrrolidin-1-ylethyl)benzamide]"
5,89%,"COc1ccc(CCNc2nccc(-n3ccc4cc(C(=O)NCCN(C)C)ccc43)n2)cc1OC [Working Example 102, 1-(2-((2-(3,4-Dimethoxyphenyl)ethyl)amino)pyrimidin-4-yl)-N-(2-(dimethylamino)ethyl)-1H-indole-5-carboxamide]"
6,110%,COc1ccc(CCOc2cccc(-c3cccc(C(=O)NCCC(N)=O)c3)n2)cc1OC [Working Example 175]
7,104%,COc1ccccc1CCNc1nccc(-c2cccc(C(=O)NCCN3CCCC3)c2)n1 [Working Example 138]
8,85%,COc1ccc(CCNc2nccc(-c3cccc(NC(=O)CCCN4CCCC4)c3)n2)cc1OC [Working Example 19]
9,109%,COc1cc(CCNc2nccc(-c3cccc(C(=O)NCCN4CCCC4)c3)n2)ccc1F [Working Example 166]

# The remaining lines, values behind:
row,Compound,GPR52 agonist activity (%)
1,COc1ccc(CCOc2cccc(-c3cccc(C(N)=O)c3)n2)cc1OC [Working Example 49],55%
2,"N#CCCNC(=O)c1cccc(-c2cccc(Oc3cc(Cl)cc(Cl)c3)n2)c1 [Working Example 121, N-(2-Cyanoethyl)-3-(6-(3,5-dichlorophenoxy)pyridin-2-yl)benzamide]",51%
3,"O=C(NCCCO)c1cccc(-c2cccc(Oc3cc(Cl)cc(Cl)c3)n2)c1 [Working Example 88, 3-(6-(3,5-Dichlorophenoxy)pyridin-2-yl)-N-(3-hydroxypropyl)benzamide]",62%
4,"COc1cccc(CCOc2cccc(-c3cccc(C(=O)Nc4ccccn4)c3)n2)c1 [Working Example 76, 3-(6-(2-(3-Methoxyphenyl)ethoxy)pyridin-2-yl)-N-pyridin-2-ylbenzamide]",52%
5,COc1ccc(CCOc2cccc(-c3cccc(NC(=O)Cn4ccnc4)c3)n2)cc1OC [Working Example 302],57%
6,"O=C(NCCO)c1cccc(-c2cccc(OCCc3cccc(C(F)(F)F)c3)n2)c1 [Working Example 65, N-(2-hydroxyethyl)-3-(6-(2-(3-(trifluoromethyl)phenyl)ethoxy)pyridin-2-yl)benzamide]",64%
7,"N#CCCNC(=O)c1cccc(-c2cccc(Oc3cccc(Cl)c3)n2)c1 [Working Example 125, 3-(6-(3-Chlorophenoxy)pyridin-2-yl)-N-(2-cyanoethyl)benzamide]",55%
8,"N#CCCNC(=O)c1cc(-c2cccc(Oc3ccc(Cl)cc3Cl)n2)ccc1F [Working Example 113, N-(2-cyanoethyl)-5-(6-(2,4-dichlorophenoxy)pyridin-2-yl)-2-fluorobenzamide]",77%
